# Test results as given in US6323230A, “Use of nitrogen heterocyclic aromatic derivatives in the topical treatment of the epithelial tissues diseases” (Geange Ltd., priority 1997, dated 2001).
# Experiments:
# [1] = Percutaneous absorption / systemically bioavailable dose from cream; format: in vivo; conditions: cream 0.05-0.1%
# [2] = tested on: ulcerous cholitis (colon); assay: Animal models of ulcerous cholitis; format: in vivo, Wistar rats; conditions: oral, daily, 1 mg/kg, in sesame oil 2 mg/mL
# Protocol: Dealing with the activity of the compounds object of the present invention, on the inflammatory diseases of the low intestine, some compounds, namely V, VI, X and XI, were tested in animal models of ulcerous cholitis (Wallace J. L. et al., Eur. J. Pharmacol. 257, 249 (1994); Renter B. K. et al. J. Clin. Invest. 98, 2076-2085 (1996).
# In particular, compound VI, when administered daily by oral route to Wistar rats, dissolved in sesame oil at the concentration of 2 mg/mL , at the dose of 1 mg/kg, did show a good activity in favouring colon ulcers repair, in re-establishing the normal thickness of the intestinal wall and in decreasing the granulocytes infiltration proper of an inflammatory condition.
smiles,measurement,setting,value
CCc1ccccc1-c1n[nH]c(-c2cccc(OC)c2)n1 [Compound XIII],maximum systemically bioavailable dose,"[1]; about 50 g, whole body surface, 25-50 mg",0.05 to 0.1 mg/kg
same,Fa,"[1]; in vivo, topical or ocular, of the applied dose",~10%
COc1cccc(-c2nc(-c3ccccc3CO)n[nH]2)c1 [VI],decreasing the granulocytes infiltration,[2],good activity
same,favouring colon ulcers repair,[2],good activity
same,re-establishing the normal thickness of the intestinal wall,[2],good activity
